Measured values as given in PubChem BioAssay (NCI).
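Five concentrations, 48 hours, 96-well plates. GI50 is the concentration that inhibits growth by half. TGI denotes the concentration required for complete inhibition of growth.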

Experiments:
Assay in all cases: DTP human tumour cell line panel, 48 h; in the data active = GI50 below about 0.43 µM; inactive = the rest
786-0 renal = tested on: 786-0 renal
A498 renal = tested on: A498 renal
A549 NSCLC = tested on: A549 NSCLC
ACHN renal = tested on: ACHN renal
BT-549 breast = tested on: BT-549 breast
CAKI-1 renal = tested on: CAKI-1 renal
CCRF-CEM leukemia = tested on: CCRF-CEM leukemia
COLO 205 colon = tested on: COLO 205 colon
DU-145 prostate = tested on: DU-145 prostate
EKVX NSCLC = tested on: EKVX NSCLC
HCC-2998 colon = tested on: HCC-2998 colon
HCT-116 colon = tested on: HCT-116 colon
HCT-15 colon = tested on: HCT-15 colon
HL-60(TB) leukemia = tested on: HL-60(TB) leukemia
HOP-62 NSCLC = tested on: HOP-62 NSCLC
HOP-92 NSCLC = tested on: HOP-92 NSCLC
HS 578T breast = tested on: HS 578T breast
HT29 colon = tested on: HT29 colon
IGROV1 ovarian = tested on: IGROV1 ovarian
K-562 leukemia = tested on: K-562 leukemia
KM12 colon = tested on: KM12 colon
LOX IMVI melanoma = tested on: LOX IMVI melanoma
M14 melanoma = tested on: M14 melanoma
MALME-3M melanoma = tested on: MALME-3M melanoma
MCF7 breast = tested on: MCF7 breast
MDA-MB-231 breast = tested on: MDA-MB-231 breast
MDA-MB-435 = tested on: MDA-MB-435
MDA-MB-468 breast = tested on: MDA-MB-468 breast
MOLT-4 leukemia = tested on: MOLT-4 leukemia
NCI-H226 lung = tested on: NCI-H226 lung
NCI-H23 lung = tested on: NCI-H23 lung
NCI-H460 lung = tested on: NCI-H460 lung
NCI-H522 lung = tested on: NCI-H522 lung
NCI/ADR-RES ovarian = tested on: NCI/ADR-RES ovarian
OVCAR-3 ovarian = tested on: OVCAR-3 ovarian
OVCAR-4 ovarian = tested on: OVCAR-4 ovarian
OVCAR-5 ovarian = tested on: OVCAR-5 ovarian
OVCAR-8 ovarian = tested on: OVCAR-8 ovarian
PC-3 prostate = tested on: PC-3 prostate
RPMI-8226 leukemia = tested on: RPMI-8226 leukemia
RXF 393 renal = tested on: RXF 393 renal
SF-268 CNS = tested on: SF-268 CNS
SF-295 CNS = tested on: SF-295 CNS
SF-539 CNS = tested on: SF-539 CNS
SK-MEL-2 melanoma = tested on: SK-MEL-2 melanoma
SK-MEL-28 melanoma = tested on: SK-MEL-28 melanoma
SK-MEL-5 melanoma = tested on: SK-MEL-5 melanoma
SK-OV-3 ovarian = tested on: SK-OV-3 ovarian
SN12C renal = tested on: SN12C renal
SNB-19 CNS = tested on: SNB-19 CNS
SNB-75 CNS = tested on: SNB-75 CNS
SR leukemia = tested on: SR leukemia
SW-620 colon = tested on: SW-620 colon
T-47D breast = tested on: T-47D breast
TK-10 renal = tested on: TK-10 renal
U251 CNS = tested on: U251 CNS
UACC-257 melanoma = tested on: UACC-257 melanoma
UACC-62 melanoma = tested on: UACC-62 melanoma
UO-31 renal = tested on: UO-31 renal

N#C/C(=C\c1ccc(N(c2ccccc2)c2ccccc2)cc1)C(N)=O
inactive: GI50 (786-0 renal) 18 µM | GI50 (A498 renal) 1.11 µM | GI50 (A549 NSCLC) 22.7 µM | GI50 (ACHN renal) 64.4 µM | GI50 (BT-549 breast) > 100 µM | GI50 (CCRF-CEM leukemia) > 100 µM | GI50 (COLO 205 colon) 15.3 µM | GI50 (DU-145 prostate) > 100 µM | GI50 (EKVX NSCLC) > 100 µM | GI50 (HCC-2998 colon) > 64.1 µM | GI50 (HCT-116 colon) 0.758 µM | GI50 (HCT-15 colon) > 100 µM | GI50 (HL-60(TB) leukemia) > 100 µM | GI50 (HOP-62 NSCLC) 3.9 µM | GI50 (HOP-92 NSCLC) 29.7 µM | GI50 (HS 578T breast) 38.4 µM | GI50 (HT29 colon) 16.9 µM | GI50 (IGROV1 ovarian) 0.946 µM | GI50 (K-562 leukemia) 43.9 µM | GI50 (KM12 colon) > 100 µM | GI50 (LOX IMVI melanoma) > 89 µM | GI50 (M14 melanoma) > 100 µM | GI50 (MALME-3M melanoma) 42.9 µM | GI50 (MCF7 breast) 0.661 µM | GI50 (MDA-MB-231 breast) > 72.5 µM | GI50 (MDA-MB-435) > 100 µM | GI50 (MOLT-4 leukemia) > 100 µM | GI50 (NCI-H23 lung) 15.3 µM | GI50 (NCI-H460 lung) 1.74 µM | GI50 (NCI-H522 lung) > 78.9 µM | GI50 (NCI/ADR-RES ovarian) 21.6 µM | GI50 (OVCAR-3 ovarian) 4.6 µM | GI50 (OVCAR-4 ovarian) 2.28 µM | GI50 (OVCAR-5 ovarian) 1.12 µM | GI50 (OVCAR-8 ovarian) 35.1 µM | GI50 (PC-3 prostate) > 69.8 µM | GI50 (RPMI-8226 leukemia) 12.4 µM | GI50 (RXF 393 renal) 1.33 µM | GI50 (SF-268 CNS) 67.3 µM | GI50 (SF-295 CNS) 7.24 µM | GI50 (SF-539 CNS) 68 µM | GI50 (SK-MEL-2 melanoma) 29 µM | GI50 (SK-MEL-28 melanoma) > 100 µM | GI50 (SK-MEL-5 melanoma) 11 µM | GI50 (SK-OV-3 ovarian) 25.3 µM | GI50 (SN12C renal) > 77.1 µM | GI50 (SNB-19 CNS) 37.3 µM | GI50 (SNB-75 CNS) 19.8 µM | GI50 (SR leukemia) > 100 µM | GI50 (SW-620 colon) 8.69 µM | GI50 (T-47D breast) 1.06 µM | GI50 (TK-10 renal) 0.797 µM | GI50 (U251 CNS) 2.99 µM | GI50 (UACC-257 melanoma) 0.839 µM | GI50 (UO-31 renal) 25.7 µM
0.351 µM: TGI (MDA-MB-468 breast)
4.64 µM: TGI (IGROV1 ovarian)
16.1 µM: TGI (OVCAR-4 ovarian)
> 92.4 µM: TGI (HOP-92 NSCLC)
31.5 µM: TGI (HOP-62 NSCLC)
> 93.9 µM: TGI (SNB-75 CNS)
20.3 µM: TGI (RXF 393 renal)
3.92 µM: TGI (TK-10 renal)
3.53 µM: TGI (UACC-257 melanoma)
3.07 µM: TGI (OVCAR-5 ovarian)
5.27 µM: TGI (T-47D breast)
2.61 µM: TGI (A498 renal)
0.989 µM: TGI (NCI-H226 lung)
> 100 µM: TGI (A549 NSCLC) | TGI (ACHN renal) | TGI (BT-549 breast) | TGI (CCRF-CEM leukemia) | TGI (COLO 205 colon) | TGI (DU-145 prostate) | TGI (EKVX NSCLC) | TGI (HCC-2998 colon) | TGI (HCT-116 colon) | TGI (HCT-15 colon) | TGI (HL-60(TB) leukemia) | TGI (HS 578T breast) | TGI (HT29 colon) | TGI (K-562 leukemia) | TGI (KM12 colon) | TGI (LOX IMVI melanoma) | TGI (M14 melanoma) | TGI (MALME-3M melanoma) | TGI (MCF7 breast) | TGI (MDA-MB-231 breast) | TGI (MDA-MB-435) | TGI (MOLT-4 leukemia) | TGI (NCI-H23 lung) | TGI (NCI-H522 lung) | TGI (NCI/ADR-RES ovarian) | TGI (OVCAR-8 ovarian) | TGI (PC-3 prostate) | TGI (RPMI-8226 leukemia) | TGI (SF-268 CNS) | TGI (SF-295 CNS) | TGI (SF-539 CNS) | TGI (SK-MEL-2 melanoma) | TGI (SK-MEL-28 melanoma) | TGI (SK-MEL-5 melanoma) | TGI (SK-OV-3 ovarian) | TGI (SN12C renal) | TGI (SNB-19 CNS) | TGI (SR leukemia) | TGI (SW-620 colon) | TGI (U251 CNS) | TGI (UO-31 renal)
1.37 µM: TGI (UACC-62 melanoma)
2.48 µM: TGI (CAKI-1 renal)
active: GI50 (CAKI-1 renal) 0.308 µM | GI50 (MDA-MB-468 breast) 0.145 µM | GI50 (NCI-H226 lung) 0.24 µM | GI50 (UACC-62 melanoma) 0.308 µM
> 95.9 µM: TGI (OVCAR-3 ovarian)
> 92.1 µM: TGI (786-0 renal)
> 67.2 µM: TGI (NCI-H460 lung)
